ChEMBL document CHEMBL1201862, “PubChem BioAssay data set” (2004)
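Dose response: 5 concentrations. Exposure: 48 h. Format: 96-well plates. Endpoint: linear interpolation; highest concentration if not reached. Abbreviation: GI50, concentration required for 50% inhibition of growth.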 Activity calls are given as the source filed them. Rule as the data show it: active = GI50 up to about 1.1 µM and inactive = higher.

What was measured:
Experiment in all cases: NCI anticancer screen, dose series, 48 h
[1] = system: 786-0
[2] = system: A498
[3] = system: A549
[4] = system: ACHN
[5] = system: CAKI-1
[6] = system: CCRF-CEM
[7] = system: COLO 205
[8] = system: DLD-1
[9] = system: DMS-114
[10] = system: DMS-273
[11] = system: EKVX
[12] = system: HCC 2998
[13] = system: HCT-116
[14] = system: HCT-15
[15] = system: HOP-18
[16] = system: HOP-62
[17] = system: HOP-92
[18] = system: HT-29
[19] = system: IGROV-1
[20] = system: K562
[21] = system: KM-20L2
[22] = system: KM12
[23] = system: LOX IMVI
[24] = system: LXFL 529
[25] = system: M14
[26] = system: M19-MEL
[27] = system: MOLT-4
[28] = system: Malme-3M
[29] = system: NCI-H226
[30] = system: NCI-H23
[31] = system: NCI-H460
[32] = system: NCI-H522
[33] = system: OVCAR-3
[34] = system: OVCAR-4
[35] = system: OVCAR-5
[36] = system: OVCAR-8
[37] = system: RPMI-8226
[38] = system: RXF 393
[39] = system: RXF 631
[40] = system: SF-268
[41] = system: SF-539
[42] = system: SK-MEL-28
[43] = system: SK-MEL-2
[44] = system: SK-MEL-5
[45] = system: SK-OV-3
[46] = system: SN12C
[47] = system: SNB-19
[48] = system: SNB-75
[49] = system: SNB-78
[50] = system: SW-620
[51] = system: TK-10
[52] = system: U-251
[53] = system: UACC-257
[54] = system: UACC-62
[55] = system: UO-31
[56] = system: XF498
[57] = system: HL-60
[58] = system: SF-295
[59] = system: SR

COC(=O)c1ccccc1NC(=O)C(=O)Cc1nc2c3c(ccc2nc1O)C(=O)c1ccccc1C3=O
GI50 [1]: 16.2 µM (inactive)
GI50 [2]: 35.1 µM (inactive)
GI50 [3]: 14 µM (inactive)
GI50 [4]: 25 µM (inactive)
GI50 [5]: 10.9 µM (inactive)
GI50 [6]: 3.75 µM (inactive)
GI50 [7]: 15.8 µM (inactive)
GI50 [8]: 6.35 µM (inactive)
GI50 [9]: 7.62 µM (inactive)
GI50 [10]: 11.8 µM (inactive)
GI50 [11]: 5.21 µM (inactive)
GI50 [12]: 16.8 µM (inactive)
GI50 [13]: 9.29 µM (inactive)
GI50 [14]: 21.9 µM
GI50 [15]: > 100 µM (inactive)
GI50 [16]: 13.9 µM (inactive)
GI50 [17]: 15.8 µM (inactive)
GI50 [18]: 35.9 µM (inactive)
GI50 [19]: 15.7 µM (inactive)
GI50 [20]: 23.9 µM (inactive)
GI50 [21]: 32.7 µM (inactive)
GI50 [22]: 5.26 µM (inactive)
GI50 [23]: 12.5 µM (inactive)
GI50 [24]: 22.6 µM (inactive)
GI50 [25]: 12.7 µM (inactive)
GI50 [26]: 6.56 µM (inactive)
GI50 [27]: 10.3 µM (inactive)
GI50 [28]: 8.26 µM (inactive)
GI50 [29]: 4.48 µM (inactive)
GI50 [30]: 11.5 µM (inactive)
GI50 [31]: 16.2 µM (inactive)
GI50 [32]: 9.14 µM (inactive)
GI50 [33]: 15 µM (inactive)
GI50 [34]: 9.06 µM (inactive)
GI50 [35]: 79.4 µM (inactive)
GI50 [36]: 24.3 µM (inactive)
GI50 [37]: 8.2 µM (inactive)
GI50 [38]: 2.08 µM (inactive)
GI50 [39]: 25.2 µM (inactive)
GI50 [40]: 6.38 µM (inactive)
GI50 [41]: 23.9 µM (inactive)
GI50 [42]: 15.7 µM (inactive)
GI50 [43]: 15 µM (inactive)
GI50 [44]: 2.99 µM (inactive)
GI50 [45]: 10.1 µM (inactive)
GI50 [46]: 29.6 µM (inactive)
GI50 [47]: 12.6 µM (inactive)
GI50 [48]: 28.1 µM (inactive)
GI50 [49]: 34 µM (inactive)
GI50 [50]: 5.56 µM (inactive)
GI50 [51]: 23.8 µM (inactive)
GI50 [52]: 17.1 µM (inactive)
GI50 [53]: 16.3 µM (inactive)
GI50 [54]: 4.48 µM (inactive)
GI50 [55]: 12.2 µM (inactive)
GI50 [56]: 26.7 µM (inactive)

O=C(CC(=O)C1CCOC1=O)C(=O)Nc1cccc(Cl)c1 (stereo not drawn)
GI50 [1]: > 100 µM (inactive)
GI50 [2]: > 100 µM (inactive)
GI50 [3]: > 100 µM (inactive)
GI50 [4]: > 100 µM (inactive)
GI50 [5]: > 100 µM (inactive)
GI50 [7]: > 100 µM (inactive)
GI50 [8]: > 100 µM (inactive)
GI50 [9]: > 100 µM (inactive)
GI50 [10]: > 100 µM (inactive)
GI50 [11]: > 100 µM (inactive)
GI50 [12]: > 100 µM (inactive)
GI50 [13]: > 100 µM (inactive)
GI50 [14]: > 100 µM
GI50 [57]: > 100 µM (inactive)
GI50 [15]: > 100 µM (inactive)
GI50 [16]: > 100 µM (inactive)
GI50 [17]: > 100 µM (inactive)
GI50 [18]: > 100 µM (inactive)
GI50 [19]: > 100 µM (inactive)
GI50 [20]: > 100 µM (inactive)
GI50 [21]: > 100 µM (inactive)
GI50 [22]: > 100 µM (inactive)
GI50 [23]: > 100 µM (inactive)
GI50 [24]: > 100 µM (inactive)
GI50 [25]: > 100 µM (inactive)
GI50 [26]: > 100 µM (inactive)
GI50 [27]: > 100 µM (inactive)
GI50 [28]: > 100 µM (inactive)
GI50 [29]: > 100 µM (inactive)
GI50 [30]: > 100 µM (inactive)
GI50 [31]: > 100 µM (inactive)
GI50 [32]: > 100 µM (inactive)
GI50 [33]: > 100 µM (inactive)
GI50 [34]: > 100 µM (inactive)
GI50 [35]: > 100 µM (inactive)
GI50 [36]: > 100 µM (inactive)
GI50 [37]: > 100 µM (inactive)
GI50 [38]: > 100 µM (inactive)
GI50 [39]: > 100 µM (inactive)
GI50 [40]: > 100 µM (inactive)
GI50 [58]: > 100 µM (inactive)
GI50 [41]: > 100 µM (inactive)
GI50 [42]: > 100 µM (inactive)
GI50 [43]: > 100 µM (inactive)
GI50 [44]: > 100 µM (inactive)
GI50 [45]: > 100 µM (inactive)
GI50 [46]: > 100 µM (inactive)
GI50 [47]: > 100 µM (inactive)
GI50 [48]: > 100 µM (inactive)
GI50 [49]: > 100 µM (inactive)
GI50 [50]: > 100 µM (inactive)
GI50 [51]: > 100 µM (inactive)
GI50 [52]: > 100 µM (inactive)
GI50 [53]: > 100 µM (inactive)
GI50 [54]: > 100 µM (inactive)
GI50 [55]: > 100 µM (inactive)

[N-]=[N+]=Nc1c(Br)c(=O)[nH]c(=O)n1COCCO
GI50 [1]: > 100 µM (inactive)
GI50 [3]: > 100 µM (inactive)
GI50 [4]: > 100 µM (inactive)
GI50 [5]: > 100 µM (inactive)
GI50 [6]: 63.4 µM (inactive)
GI50 [7]: > 100 µM (inactive)
GI50 [8]: > 100 µM (inactive)
GI50 [9]: > 100 µM (inactive)
GI50 [10]: > 100 µM (inactive)
GI50 [12]: > 100 µM (inactive)
GI50 [13]: > 100 µM (inactive)
GI50 [57]: > 100 µM (inactive)
GI50 [15]: > 100 µM (inactive)
GI50 [16]: > 100 µM (inactive)
GI50 [17]: > 100 µM (inactive)
GI50 [18]: > 100 µM (inactive)
GI50 [19]: > 100 µM (inactive)
GI50 [20]: > 100 µM (inactive)
GI50 [22]: > 100 µM (inactive)
GI50 [23]: > 100 µM (inactive)
GI50 [24]: > 100 µM (inactive)
GI50 [25]: > 100 µM (inactive)
GI50 [26]: > 100 µM (inactive)
GI50 [27]: > 100 µM (inactive)
GI50 [28]: > 100 µM (inactive)
GI50 [30]: > 100 µM (inactive)
GI50 [31]: > 100 µM (inactive)
GI50 [32]: 32.2 µM (inactive)
GI50 [33]: > 100 µM (inactive)
GI50 [34]: > 100 µM (inactive)
GI50 [35]: > 100 µM (inactive)
GI50 [36]: > 100 µM (inactive)
GI50 [38]: > 100 µM (inactive)
GI50 [39]: > 100 µM (inactive)
GI50 [40]: > 100 µM (inactive)
GI50 [58]: > 100 µM (inactive)
GI50 [41]: > 100 µM (inactive)
GI50 [42]: > 100 µM (inactive)
GI50 [44]: > 100 µM (inactive)
GI50 [46]: > 100 µM (inactive)
GI50 [47]: > 100 µM (inactive)
GI50 [48]: 86.1 µM (inactive)
GI50 [49]: > 100 µM (inactive)
GI50 [59]: > 100 µM (inactive)
GI50 [50]: > 100 µM (inactive)
GI50 [51]: > 100 µM (inactive)
GI50 [52]: > 100 µM (inactive)
GI50 [53]: > 100 µM (inactive)
GI50 [54]: > 100 µM (inactive)
GI50 [55]: > 100 µM (inactive)
GI50 [56]: > 100 µM (inactive)
